Values quoted from earlier work in patent US9828409B2, “Bridged-cyclo-ProTides as prodrugs of therapeutic nucleosides and nucleotides” (priority 2014, dated 2017).

Conditions: patients in clinical trials

Structure (SMILES): CCOc1nc(N)nc2c1ncn2[C@@H]1O[C@@H]2COP(=O)(OC(C)C)O[C@H]2[C@@]1(C)F (stereo partly shown) [PSI-352938]
- level of liver enzymes in patients: elevated level of liver enzymes
